# In the Kinase Knowledgebase extract (Sharma et al. 2016):
# pIC50: −log10 of the molar value.
# Target: EGFR (UniProt P00533)
# Sequence (P00533 whole entry, looked up): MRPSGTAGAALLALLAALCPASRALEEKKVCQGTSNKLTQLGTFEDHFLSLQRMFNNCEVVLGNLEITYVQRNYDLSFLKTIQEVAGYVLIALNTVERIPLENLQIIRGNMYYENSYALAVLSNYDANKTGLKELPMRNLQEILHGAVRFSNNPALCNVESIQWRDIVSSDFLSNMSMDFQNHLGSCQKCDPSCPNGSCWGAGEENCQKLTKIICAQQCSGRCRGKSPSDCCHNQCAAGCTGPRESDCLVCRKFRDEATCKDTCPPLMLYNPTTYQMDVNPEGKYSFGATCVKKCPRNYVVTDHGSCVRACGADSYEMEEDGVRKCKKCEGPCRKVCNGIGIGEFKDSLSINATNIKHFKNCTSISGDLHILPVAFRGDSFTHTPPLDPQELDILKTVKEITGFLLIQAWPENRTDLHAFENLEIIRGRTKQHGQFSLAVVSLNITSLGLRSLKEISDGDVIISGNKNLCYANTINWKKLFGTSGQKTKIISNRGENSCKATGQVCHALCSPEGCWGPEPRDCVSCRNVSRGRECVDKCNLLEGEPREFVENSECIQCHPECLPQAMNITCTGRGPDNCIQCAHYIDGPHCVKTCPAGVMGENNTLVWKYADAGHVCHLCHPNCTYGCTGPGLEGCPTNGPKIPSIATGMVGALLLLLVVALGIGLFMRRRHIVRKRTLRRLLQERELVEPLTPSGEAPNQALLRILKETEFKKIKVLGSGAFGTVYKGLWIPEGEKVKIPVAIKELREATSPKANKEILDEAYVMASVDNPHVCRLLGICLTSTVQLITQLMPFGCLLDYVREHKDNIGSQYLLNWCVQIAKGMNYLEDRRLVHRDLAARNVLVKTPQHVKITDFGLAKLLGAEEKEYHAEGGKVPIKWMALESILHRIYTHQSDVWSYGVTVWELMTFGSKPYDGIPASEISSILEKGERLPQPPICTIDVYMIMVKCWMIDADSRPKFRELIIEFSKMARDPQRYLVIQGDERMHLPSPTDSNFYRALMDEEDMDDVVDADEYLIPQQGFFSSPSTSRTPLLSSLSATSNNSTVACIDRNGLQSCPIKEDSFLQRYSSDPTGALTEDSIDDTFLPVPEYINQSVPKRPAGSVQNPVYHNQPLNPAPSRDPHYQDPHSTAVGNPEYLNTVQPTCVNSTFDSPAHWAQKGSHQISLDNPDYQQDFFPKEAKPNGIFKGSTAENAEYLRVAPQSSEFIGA
row,Structure (SMILES),pIC50
1,CC(=O)Nc1cccc(C#Cc2cncnc2Nc2ccc3c(cnn3Cc3ccccc3)c2)c1,≥ 5.00
2,Cc1ccc(S(=O)(=O)n2ccc3ccc(C#Cc4cncnc4Nc4ccc(OCc5cccc(F)c5)c(Cl)c4)cc32)cc1,≥ 5.00
3,C(=C\c1cncnc1Nc1ccc2sc(Cc3ccccc3)nc2c1)/c1ccsc1,< 6.00
4,C(=C\c1cncnc1Nc1ccc(Oc2ccccc2)cc1)/c1ccccc1,≥ 5.00
5,CS(=O)(=O)CCNCc1cccc(C#Cc2cncnc2Nc2ccc(OCc3cccc(F)c3)c(Cl)c2)c1,≥ 5.00
6,Nc1ncc(/C=C/c2cncnc2Nc2ccc(OCc3cccc(F)c3)c(Cl)c2)cn1,≥ 5.00
7,C(=C\c1cncnc1Nc1ccc2[nH]c(Cc3ccccc3)nc2c1)/c1cn[nH]c1,≥ 5.00
8,N#Cc1ccc(C#Cc2cncnc2Nc2ccc(OCc3ccc(F)cc3)c(Cl)c2)nc1N,≥ 5.00
9,CN(CCO)C(=O)NCc1cccc(C#Cc2cncnc2Nc2ccc(OCc3cccc(F)c3)c(Cl)c2)n1,≥ 5.00
10,Fc1cccc(COc2ccc(Nc3ncncc3/C=C/c3cccs3)cc2Cl)c1,≥ 5.00
11,C(=C\c1cncnc1Nc1ccc2[nH]c(Cc3ccccc3)nc2c1)/c1ccccc1,≥ 5.00
12,COCCOCC(=O)Nc1cccc(C#Cc2cncnc2Nc2ccc(OCc3cccc(F)c3)c(Cl)c2)c1,≥ 5.00
13,COC(=O)CCC(=O)Nc1cccc(C#Cc2cncnc2Nc2ccc(OCc3cccc(F)c3)c(Cl)c2)n1,6.00 to 7.00
14,Fc1cccc(COc2ccc(Nc3ncncc3C#Cc3cccc(CNCCN4CCOCC4)n3)cc2Cl)c1,6.00 to 7.00
15,CN(CCO)Cc1cccc(C#Cc2cncnc2Nc2ccc(OCc3cccc(F)c3)c(Cl)c2)n1,≥ 5.00
16,CC(=O)Nc1cccc(C#Cc2cncnc2Nc2ccc(Cc3ccccc3)cc2)c1,≥ 5.00
17,Fc1cccc(COc2ccc(Nc3ncncc3/C=C/c3cccnc3)cc2Cl)c1,≥ 5.00
18,CC(=O)Nc1cccc(/C=C/c2cncnc2Nc2ccc3c(cnn3Cc3ccccc3)c2)c1,≥ 5.00
19,C(=C\c1cncnc1Nc1ccc2[nH]c(Cc3ccccc3)nc2c1)/c1ccsc1,≥ 5.00

row,Structure (SMILES),pIC50
1,CN(C)CCCC(=O)Nc1cccc(C#Cc2cncnc2Nc2ccc(OCc3cccc(F)c3)c(Cl)c2)n1,> 7.00
2,CC(=O)Nc1cccc(C#Cc2cncnc2Nc2ccc3[nH]c(Cc4ccccc4)nc3c2)c1,≥ 5.00
3,O=C(NCCN1CCOCC1)NCc1cccc(C#Cc2cncnc2Nc2ccc(OCc3cccc(F)c3)c(Cl)c2)n1,> 7.00
4,Fc1cccc(COc2ccc(Nc3ncncc3/C=C/c3ccncc3)cc2Cl)c1,> 7.00
5,Oc1cccnc1/C=C/c1cncnc1Nc1ccc2c(cnn2Cc2ccccc2)c1,≥ 5.00
6,CS(=O)(=O)CC(=O)Nc1cccc(C#Cc2cncnc2Nc2ccc(OCc3cccc(F)c3)c(Cl)c2)c1,≥ 5.00
7,CC(=O)Nc1cccc(/C=C/c2cncnc2Nc2ccc(OCc3cccc(F)c3)c(Cl)c2)c1,> 7.00
8,Fc1cccc(COc2ccc(Nc3ncncc3C#Cc3cccc(CN4CCOCC4)n3)cc2Cl)c1,≥ 5.00
9,CS(=O)(=O)CCNc1cccc(C#Cc2cncnc2Nc2ccc(OCc3cccc(F)c3)c(Cl)c2)n1,< 6.00
10,C(=C\c1cncnc1Nc1ccc2c(cnn2Cc2ccccc2)c1)/c1cccnc1,≥ 5.00
11,CS(=O)(=O)CCNCc1ccc(C#Cc2cncnc2Nc2ccc(OCc3cccc(F)c3)c(Cl)c2)o1,≥ 5.00
12,CC(C)(C)OC(=O)NCc1cccc(C#Cc2cncnc2Nc2ccc(OCc3cccc(F)c3)c(Cl)c2)c1,≥ 5.00
13,Fc1cccc(COc2ccc(Nc3ncncc3C#Cc3cccc(CN4CCCCC4)n3)cc2Cl)c1,> 7.00
14,Fc1cccc(COc2ccc(Nc3ncncc3C#Cc3cccc(CN4CCCC4)n3)cc2Cl)c1,≥ 5.00
15,CNC(=O)c1cccc(/C=C/c2cncnc2Nc2ccc3[nH]c(Cc4ccccc4)nc3c2)c1,≥ 5.00
16,Fc1cccc(COc2ccc(Nc3ncncc3C#Cc3ccnc(N4CCOCC4)n3)cc2Cl)c1,≥ 5.00
17,CC(=O)Nc1ccc(/C=C/c2cncnc2Nc2ccc(OCc3cccc(F)c3)c(Cl)c2)cn1,≥ 5.00
18,C(=C\c1cncnc1Nc1ccc2c(cnn2Cc2ccccc2)c1)/c1cn[nH]c1,6.00 to 7.00
19,C(=C\c1cncnc1Nc1ccc2c(cnn2Cc2ccccc2)c1)/c1ccncc1,≥ 5.00

row,Structure (SMILES),pIC50
1,C(#Cc1cncnc1Nc1ccc2c(ccn2Cc2ccccc2)c1)c1ccccc1,≥ 5.00
2,Fc1cccc(COc2ccc(Nc3ncncc3C#Cc3cccc(CN4CCNCC4)n3)cc2Cl)c1,≥ 5.00
3,O=C(Nc1cccc(C#Cc2cncnc2Nc2ccc(OCc3cccc(F)c3)c(Cl)c2)n1)C(F)(F)Cl,≥ 5.00
4,CSCCC(=O)Nc1cccc(C#Cc2cncnc2Nc2ccc(OCc3cccc(F)c3)c(Cl)c2)c1,≥ 5.00
5,COCCNC(=O)NCc1cccc(C#Cc2cncnc2Nc2ccc(OCc3cccc(F)c3)c(Cl)c2)n1,≥ 5.00
6,Fc1cccc(COc2ccc(Nc3ncncc3/C=C/c3ccsc3)cc2Cl)c1,> 7.00
7,COc1ccc(/C=C/c2cncnc2Nc2ccc(OCc3cccc(F)c3)c(Cl)c2)cc1OC,> 7.00
8,Fc1cccc(COc2ccc(Nc3ncncc3C#Cc3cccc(CNCCCn4ccnc4)n3)cc2Cl)c1,> 7.00
9,CC(=O)NCCNCc1cccc(C#Cc2cncnc2Nc2ccc(OCc3cccc(F)c3)c(Cl)c2)n1,≥ 5.00
10,CN1CCN(Cc2cccc(C#Cc3cncnc3Nc3ccc(OCc4cccc(F)c4)c(Cl)c3)n2)CC1,≥ 5.00
11,Fc1cccc(COc2ccc(Nc3ncncc3/C=C/c3cn[nH]c3)cc2Cl)c1,≥ 5.00
12,CS(=O)(=O)CCNc1nc(C#Cc2cncnc2Nc2ccc(OCc3cccc(F)c3)c(Cl)c2)ncc1C#N,≥ 5.00
13,O=C(Nc1cccc(C#Cc2cncnc2Nc2ccc(OCc3cccc(F)c3)c(Cl)c2)n1)C(F)(F)F,> 7.00
14,CS(=O)(=O)CCNC(=O)NCc1cccc(C#Cc2cncnc2Nc2ccc(OCc3cccc(F)c3)c(Cl)c2)n1,> 7.00
15,N#CCCNC(=O)NCc1cccc(C#Cc2cncnc2Nc2ccc(OCc3cccc(F)c3)c(Cl)c2)n1,≥ 5.00
16,Nc1ncc(/C=C/c2cncnc2Nc2ccc3c(cnn3Cc3ccccc3)c2)cn1,≥ 5.00
17,CC(=O)Nc1cccc(C#Cc2cncnc2Nc2ccc(Oc3ccccc3)cc2)c1,≥ 5.00
18,Oc1cccnc1/C=C/c1cncnc1Nc1ccc(OCc2cccc(F)c2)c(Cl)c1,≥ 5.00
19,COCCNCc1cccc(C#Cc2cncnc2Nc2ccc(OCc3cccc(F)c3)c(Cl)c2)n1,≥ 5.00

# Other lines, results leading:
row,pIC50,Structure (SMILES)
1,≥ 5.00,CC(=O)Nc1cccc(C#Cc2cncnc2Nc2ccc(OCc3cccc(F)c3)c(Cl)c2)c1
2,≥ 5.00,COc1cccc(C#Cc2cncnc2Nc2ccc(OCc3cccc(F)c3)c(Cl)c2)n1
3,≥ 5.00,Cn1cncc1C#Cc1cncnc1Nc1ccc(OCc2cccc(F)c2)c(Cl)c1
4,≥ 5.00,N#Cc1ccccc1C#Cc1cncnc1Nc1ccc(OCc2cccc(F)c2)c(Cl)c1
5,≥ 5.00,Fc1cccc(COc2ccc(Nc3ncncc3C#Cc3ccccc3)cc2Cl)c1
6,≥ 5.00,Fc1cccc(COc2ccc(Nc3ncncc3C#Cc3cccc(CNCc4ccccc4)n3)cc2Cl)c1
7,≥ 5.00,OCc1nc(C#Cc2cncnc2Nc2ccc(OCc3cccc(F)c3)c(Cl)c2)cs1
8,≥ 5.00,CC(=O)Nc1cccc(C#Cc2cncnc2Nc2ccc(OCc3cccc(F)c3)c(Cl)c2)n1
9,> 7.00,Fc1cccc(COc2ccc(Nc3ncncc3/C=C/c3ccccc3)cc2Cl)c1
10,≥ 5.00,Fc1cccc(COc2ccc(Nc3ncncc3C#Cc3ccc4c(c3)CNCC4)cc2Cl)c1
11,≥ 5.00,O=Cc1cccc(C#Cc2cncnc2Nc2ccc(OCc3cccc(F)c3)c(Cl)c2)c1
12,≥ 5.00,N#CCCNCc1ccc(C#Cc2cncnc2Nc2ccc(OCc3cccc(F)c3)c(Cl)c2)o1
13,≥ 5.00,Fc1cccc(COc2ccc(Nc3ncncc3C#Cc3ccsc3)cc2Cl)c1
14,≥ 5.00,CSc1nccc(C#Cc2cncnc2Nc2ccc(OCc3cccc(F)c3)c(Cl)c2)n1
15,≥ 5.00,Nc1ccc(C#Cc2cncnc2Nc2ccc(OCc3cccc(F)c3)c(Cl)c2)cn1
16,≥ 5.00,CN(C)Cc1cccc(C#Cc2cncnc2Nc2ccc(OCc3cccc(F)c3)c(Cl)c2)n1
17,≥ 5.00,Nc1cccc(C#Cc2cncnc2Nc2ccc(OCc3cccc(F)c3)c(Cl)c2)c1
18,≥ 5.00,Fc1cccc(COc2ccc(Nc3ncncc3C#Cc3cccnc3)cc2Cl)c1
19,≥ 5.00,CC(=O)NCc1cccc(C#Cc2cncnc2Nc2ccc(OCc3cccc(F)c3)c(Cl)c2)c1
20,≥ 5.00,OCc1ccc(C#Cc2cncnc2Nc2ccc(OCc3cccc(F)c3)c(Cl)c2)o1

row,pIC50,Structure (SMILES)
1,≥ 5.00,NCc1cccc(C#Cc2cncnc2Nc2ccc(OCc3cccc(F)c3)c(Cl)c2)n1
2,≥ 5.00,CNC(=O)NCc1cccc(C#Cc2cncnc2Nc2ccc(OCc3cccc(F)c3)c(Cl)c2)n1
3,≥ 5.00,N#CCCNCc1cccc(C#Cc2cncnc2Nc2ccc(OCc3cccc(F)c3)c(Cl)c2)n1
4,≥ 5.00,CC(=S)Nc1cccc(C#Cc2cncnc2Nc2ccc(OCc3cccc(F)c3)c(Cl)c2)c1
5,≥ 5.00,NCCC(=O)Nc1cccc(C#Cc2cncnc2Nc2ccc(OCc3cccc(F)c3)c(Cl)c2)c1
6,≥ 5.00,Fc1cccc(COc2ccc(Nc3ncncc3C#Cc3ncccn3)cc2Cl)c1
7,≥ 5.00,Fc1cccc(COc2ccc(Nc3ncncc3C#Cc3cncnc3)cc2Cl)c1
8,≥ 5.00,O=Cc1ccc(C#Cc2cncnc2Nc2ccc(OCc3cccc(F)c3)c(Cl)c2)o1
9,< 6.00,COCc1cccc(C#Cc2cncnc2Nc2ccc(OCc3cccc(F)c3)c(Cl)c2)n1
10,≥ 5.00,Fc1cccc(COc2ccc(Nc3ncncc3C#Cc3ccccn3)cc2Cl)c1
11,≥ 5.00,Fc1cccc(C#Cc2cncnc2Nc2ccc(OCc3cccc(F)c3)c(Cl)c2)c1
12,≥ 5.00,O=Cc1ccccc1C#Cc1cncnc1Nc1ccc(OCc2cccc(F)c2)c(Cl)c1
13,> 7.00,Nc1cccc(C#Cc2cncnc2Nc2ccc(OCc3cccc(F)c3)c(Cl)c2)n1
14,≥ 5.00,Fc1cccc(COc2ccc(Nc3ncncc3C#Cc3cn[nH]c3)cc2Cl)c1
15,≥ 5.00,Oc1ccc(C#Cc2cncnc2Nc2ccc(OCc3cccc(F)c3)c(Cl)c2)cc1
16,≥ 5.00,N#Cc1cccc(C#Cc2cncnc2Nc2ccc(OCc3cccc(F)c3)c(Cl)c2)c1
17,≥ 5.00,Nc1ccc(C#Cc2cncnc2Nc2ccc(OCc3cccc(F)c3)c(Cl)c2)cc1
18,6.00 to 7.00,N=C(N)Nc1cccc(C#Cc2cncnc2Nc2ccc(OCc3cccc(F)c3)c(Cl)c2)c1
19,≥ 5.00,CNCc1cccc(C#Cc2cncnc2Nc2ccc(OCc3cccc(F)c3)c(Cl)c2)n1
20,≥ 5.00,Fc1cccc(COc2ccc(Nc3ncncc3C#Cc3nccs3)cc2Cl)c1
